Read-outs that look alike come from different tables or passages of the source.
Legend:
[1] = test system: Kit225 T cells with STAT-dependent luciferase reporter stimulated with human recombinant IFNα; assay: Kit225 T cell assay, IFNα stimulated STAT-dependent luciferase reporter; type: cell-based
Experimental: (§1) Kit225 T cells with a stably-integrated STAT-dependent luciferase reporter were plated in RPMI (Gibco) containing 10% heat-inactivated FBS (Gibco) and 100 U/mL PenStrep (Gibco). The cells were then stimulated with either 20 ng/mL human recombinant IL-23 or 200 U/mL human recombinant IFNα (PBL InterferonSource) for 5-6 hours. Luciferase expression was measured using the STEADY-GLO® Luciferase Assay System (Promega) according to the manufacturer's instructions.

[2] = molecular target: T1, recombinantly expressed His-tagged protein corresponding to amino acids 575-869 of human Tyk2 (Homo sapiens, UniProt P29597); assay: Probe displacement assay (scintillation proximity, radiolabeled probe); type: binding; conditions: 2.5 nM Tyk2 (575-869), 40 nM [3H] probe, 30 minutes at room temperature
T1 construct: made in house
Experimental: The preparation of radiolabeled probe, (R)—N-(1-(3-(8-methyl-5-(methylamino)-8H-imidazo[4,5-d]thiazolo[5,4-b]pyridin-2-yl)phenyl)ethyl)-2-([^3H]methylsulfonyl)benzamide, was performed as described below: […]

[3] = test system: Kit225 T cells with STAT-dependent luciferase reporter stimulated with human recombinant IL-23; assay: Kit225 T cell assay, IL-23 stimulated STAT-dependent luciferase reporter; type: cell-based
Experimental: as §1

[4] = KIT225, 200 U/mL human recombinant IFNα, 5-6 hours, luciferase, read-out: IFNa Kit225 Reporter, LE (IC50)
[5] = KIT225, 20 ng/mL human recombinant IL-23, 5-6 hours, luciferase, read-out: IL-23 Kit225 Reporter, LE (IC50)
[6] = Homo sapiens, KIT225, read-out: IFNa Kit225 Reporter, LE (IC50, μM)
[7] = Homo sapiens, KIT225, read-out: IL-23 Kit225 Reporter, LE (IC50, μM)

T1 sequence (P29597 with tags, fused parts or gaps): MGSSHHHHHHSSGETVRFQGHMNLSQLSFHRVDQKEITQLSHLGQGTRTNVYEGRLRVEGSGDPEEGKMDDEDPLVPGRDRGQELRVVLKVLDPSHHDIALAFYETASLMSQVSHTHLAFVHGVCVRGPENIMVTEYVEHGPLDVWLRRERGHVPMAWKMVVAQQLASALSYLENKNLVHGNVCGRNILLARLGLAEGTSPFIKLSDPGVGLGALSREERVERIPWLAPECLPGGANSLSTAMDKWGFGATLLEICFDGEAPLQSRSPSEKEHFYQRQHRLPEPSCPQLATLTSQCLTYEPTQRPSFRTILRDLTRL

IC50 [1, 4] | EC50 [2] | IC50 [3, 5] | Compound | IC50 [1, 6] | IC50 [3, 7]
0.24 µM | 20 nM | 0.3 µM | CNC(=O)c1cnc(NC(=O)C2CC2)cc1Nc1ccccc1S(C)(=O)=O [Example 1] | – | –
12.5 µM | 430 nM | 7.06 µM | CNC(=O)c1cnc(NC(C)=O)cc1Nc1ccccc1S(C)(=O)=O [Example 2] | – | –
12.5 µM | 830 nM | 6.52 µM | CNC(=O)c1cnc(NC(=O)[C@@H]2CCCO2)cc1Nc1ccccc1S(C)(=O)=O [Example 3] | – | –
12.5 µM | 760 nM | 2.09 µM | CNC(=O)c1cnc(NC(=O)C2CCOCC2)cc1Nc1ccccc1S(C)(=O)=O [Example 4] | – | –
8.93 µM | 800 nM | 1.88 µM | CNC(=O)c1cnc(NC(=O)C2CCCCC2)cc1Nc1ccccc1S(C)(=O)=O [Example 5] | – | –
1.11 µM | 120 nM | 1.16 µM | CNC(=O)c1cnc(NC(=O)Cc2ccccc2)cc1Nc1ccccc1S(C)(=O)=O [Example 6] | – | –
4.21 µM | 460 nM | 0.4 µM | CNC(=O)c1cnc(NC(=O)C(C)C)cc1Nc1ccccc1S(C)(=O)=O [Example 7] | – | –
1 µM | 250 nM | 4.68 µM | CNC(=O)c1cnc(NC(=O)[C@H]2CC2(C)C)cc1Nc1ccccc1S(C)(=O)=O [Example 8] | – | –
6.03 µM | 380 nM | 4.55 µM | CNC(=O)c1cnc(NC(=O)Cc2ccccn2)cc1Nc1ccccc1S(C)(=O)=O [Example 10] | – | –
2.49 µM | 240 nM | 2.95 µM | CCCC(=O)Nc1cc(Nc2ccccc2S(C)(=O)=O)c(C(=O)NC)cn1 [Example 11] | – | –
0.58 µM | 230 nM | 4.42 µM | CNC(=O)c1cnc(NC(=O)Cc2ccc(OC)cc2)cc1Nc1ccccc1S(C)(=O)=O [Example 12] | – | –
0.87 µM | 170 nM | 3.15 µM | CNC(=O)c1cnc(NC(=O)C2CCC2)cc1Nc1ccccc1S(C)(=O)=O [Example 14] | – | –
0.34 µM | 50 nM | 0.69 µM | CNC(=O)c1cnc(NC(=O)C2CC2)cc1Nc1ccc(F)cc1S(C)(=O)=O [Example 15] | – | –
3.37 µM | 90 nM | 12.5 µM | CCNC(=O)Nc1cc(Nc2ccccc2S(C)(=O)=O)c(C(=O)NC)cn1 [Example 16] | – | –
9.54 µM | 200 nM | 11.4 µM | CNC(=O)Nc1cc(Nc2ccccc2S(C)(=O)=O)c(C(=O)NC)cn1 [Example 17] | – | –
9.91 µM | 540 nM | 6.61 µM | CNC(=O)c1cnc(NC(=O)C2CC2)cc1Nc1cccc(F)c1S(C)(=O)=O [Example 18] | – | –
8.51 µM | 720 nM | 5.69 µM | CNC(=O)c1cnc(NC(=O)C2CC2)cc1Nc1ccccc1C(C)(C)O [Example 19] | – | –
1.2 µM | 150 nM | 1.44 µM | CNC(=O)c1cnc(NC(=O)C2CC2)cc1Nc1cc(F)ccc1S(C)(=O)=O [Example 20] | – | –
1.85 µM | 140 nM | 2.26 µM | CNC(=O)c1cnc(NC(=O)C2CC2(F)F)cc1Nc1ccccc1S(C)(=O)=O (stereo not shown) [Example 21] | – | –
1.24 µM | 80 nM | 2.12 µM | CNC(=O)c1cnc(NC(=O)C2CC2F)cc1Nc1ccccc1S(C)(=O)=O (stereo not shown) [Example 22] | – | –

IC50 [1, 4] | EC50 [2] | IC50 [3, 5] | Compound | IC50 [1, 6] | IC50 [3, 7]
3.89 µM | 1020 nM | 12.5 µM | CNC(=O)c1cnc(NC(=O)COC)cc1Nc1ccc(F)c(F)c1OC [Example 23] | – | –
7.24 µM | 420 nM | 11.2 µM | CNC(=O)c1cnc(NC(C)=O)cc1Nc1ccc(F)c(F)c1OC [Example 24] | – | –
0.1 µM | 40 nM | 0.23 µM | CNC(=O)c1cnc(NC(=O)C2CC2)cc1Nc1ccc(F)c(F)c1OC [Example 25] | – | –
0.04 µM | 10 nM | 0.07 µM | CNC(=O)c1cnc(NC(=O)C2CC2)cc1Nc1cccc(-c2nnc(C)o2)c1OC [Example 28] | – | –
0.03 µM | 5.46 nM | 0.02 µM | CNC(=O)c1cnc(NC(=O)C2CC2)cc1Nc1cccc(-c2nnc[nH]2)c1OC [Example 29] | – | –
0.01 µM | 6.17 nM | 0.03 µM | CNC(=O)c1cnc(NC(=O)C2CC2)cc1Nc1cccc(-c2ncn(C)n2)c1OC [Example 30] | – | –
0.01 µM | 3.81 nM | 0.00478 µM | [2H]C([2H])([2H])NC(=O)c1cnc(NC(=O)C2CC2)cc1Nc1cccc(-c2ncn(C)n2)c1OC [Example 31] | – | –
0.00705 µM | 1.63 nM | 0.00731 µM | CNC(=O)c1cnc(NC(=O)C2CC2)cc1Nc1cccc(-c2ccn(C)n2)c1OC [Example 32] | – | –
0.09 µM | 5.34 nM | 0.11 µM | CNC(=O)c1cnc(NC(=O)C2CC2)cc1Nc1cccc(-c2ccnn2C)c1OC [Example 33] | – | –
0.00873 µM | 6.42 nM | 0.02 µM | [2H]C([2H])([2H])NC(=O)c1cnc(NC(=O)C2CC2)cc1Nc1cccc(-c2ccn(C)n2)c1OC [Example 34] | – | –
0.28 µM | 40 nM | 0.06 µM | [2H]C([2H])([2H])NC(=O)c1cnc(NC(=O)C2CC2)cc1Nc1cccc(-c2ccnn2C)c1OC [Example 35] | – | –
0.04 µM | 4.2 nM | 0.1 µM | [2H]C([2H])([2H])NC(=O)c1cnc(NC(=O)C2CC2)cc1Nc1cccc(-c2ccn(CC(F)F)n2)c1OC [Example 36] | – | –
0.07 µM | 3.52 nM | 0.12 µM | [2H]C([2H])([2H])NC(=O)c1cnc(NC(=O)C2CC2)cc1Nc1cccc(-c2ccn(CC)n2)c1OC [Example 37] | – | –
1.66 µM | 160 nM | 1.52 µM | [2H]C([2H])([2H])NC(=O)c1cnc(NC(=O)C2CC2)cc1Nc1cccc(-c2ccnn2CC)c1OC [Example 38] | – | –
0.16 µM | 3.86 nM | 0.17 µM | [2H]C([2H])([2H])NC(=O)c1cnc(NC(=O)C2CC2)cc1Nc1cccc(-c2ccn(CC(C)(C)O)n2)c1OC [Example 40] | – | –
0.02 µM | 7.19 nM | 0.05 µM | CNC(=O)c1cnc(NC(=O)C2CC2)cc1Nc1cccc(-c2cnn(C)c2)c1OC [Example 42] | – | –
0.02 µM | 2.54 nM | 0.06 µM | [2H]C([2H])([2H])NC(=O)c1cnc(NC(=O)C2CC2)cc1Nc1cccc(-c2cnn(C)c2)c1OC [Example 43] | – | –
0.00117 µM | – | 0.00229 µM | [2H]C([2H])([2H])NC(=O)c1cnc(NC(=O)C2CC2)cc1Nc1cccc(-c2nnn(C)n2)c1OC [Example 44] | – | –
0.01 µM | 5.56 nM | 0.01 µM | [2H]C([2H])([2H])NC(=O)c1cnc(NC(=O)C2CC2)cc1Nc1cccc(-c2csc(C)n2)c1OC [Example 45] | – | –
0.013 µM | – | 0.022 µM | [2H]C([2H])([2H])NC(=O)c1cnc(NC(=O)C2CC2)cc1Nc1cccc(-c2ncc(F)cn2)c1OC [Example 46] | – | –

Compound | IC50 [1, 4] | EC50 [2] | IC50 [3, 5] | IC50 [1, 6] | IC50 [3, 7]
CNC(=O)c1cnc(NC(=O)C2CCCc3ccccc32)cc1Nc1ccccc1S(C)(=O)=O (stereo not shown) [Example 9] | – | 940 nM | – | 2.56 µM | 13.3 µM
CNC(=O)c1cnc(NC(=O)Nc2ccccc2)cc1Nc1ccccc1S(C)(=O)=O [Example 27] | – | 290 nM | – | 3.06 µM | 3.17 µM
[2H]C([2H])([2H])NC(=O)c1cnc(NC(=O)C2CC2)cc1Nc1cccc(-c2ccn(CC(F)(F)F)n2)c1OC [Example 39] | – | 20 nM | – | 0.16 µM | 0.08 µM
[2H]C([2H])([2H])NC(=O)c1cnc(NC(=O)C2CC2)cc1Nc1cccc(-c2ccn(CCC#N)n2)c1OC [Example 41] | – | 2.74 nM | – | 0.09 µM | 0.19 µM

Reference: patent US9987266B2, “Alkyl-amide-substituted pyridyl compounds useful as modulators of IL-12, IL-23 and/or IFNα responses” (BRISTOL-MYERS SQUIBB COMPANY, priority 2013, dated 2018)
